Data taken from patent publication US8754115B2, “Fungicidal pyrazoles” (E I du Pont de Nemours and Company, priority 2010, dated 2014).
Marks after values point to notes of the source that are not given here.

How the values were obtained:
Assay type in all cases: in vivo
[1] = test system: Botrytis cinerea; assay: Test A: preventive spray on tomato seedlings, visual disease rating (tomato Botrytis)
Procedure, shortened: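 Tomato seedlings sprayed to run-off with 200 ppm suspension (800 g/ha; asterisk marks 40 ppm), inoculated next day with Botrytis cinerea spores, held 48 h saturated at 20 °C then 3 days at 24 °C. Visual rating: 100 = full disease control, 0 = none, relative to controls.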

[2] = test system: Alternaria solani; assay: Test B: preventive spray on tomato seedlings, visual disease rating (tomato early blight)
Procedure, shortened: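 Compounds were suspended at 200 ppm (asterisked values at 40 ppm) in acetone/water with surfactant and sprayed to run-off on tomato seedlings, 200 ppm being equivalent to 800 g/ha. A. solani spores were inoculated the next day, with 48 h at 27 °C in saturated air, then 5 days at 20 °C. Disease control was rated visually, 0–100% relative to controls.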

[3] = test system: Septoria nodorum; assay: Test C: preventive spray on wheat seedlings, visual disease rating (Septoria glume blotch)
Procedure, shortened: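 Wheat seedlings were sprayed to run-off with 200 ppm suspension (40 ppm where marked; 200 ppm ≈ 800 g/ha) in acetone/water with 250 ppm Trem 014, then inoculated next day with Septoria nodorum spores. Incubation was 48 h saturated at 24 °C, then 6 days at 20 °C; visual rating 0–100% disease control versus controls.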

[4] = test system: Septoria tritici; assay: Test D: preventive spray on wheat seedlings, visual disease rating (wheat leaf blotch)
Procedure, shortened: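 Wheat seedlings were sprayed to run-off with a 200 ppm suspension (equal to 800 g/ha), or 40 ppm where marked with an asterisk, and inoculated with Septoria tritici spores the next day. Plants were kept at 24 °C in saturated air for 48 h, then at 20 °C for 19 days. Disease control was rated visually from 0 to 100 relative to controls.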

[5] = test system: Puccinia recondite f. sp. tritici; assay: Test E1: curative spray on wheat seedlings after inoculation, visual disease rating (wheat leaf rust)
Procedure, shortened: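 Seedlings inoculated with rust spores, held 24 h in saturated atmosphere at 20 °C, then 2 days at 20 °C before curative spray to run-off with test suspension (200 ppm ≈ 800 g/ha, or 40 ppm where marked) in acetone/water with surfactant. Visual disease control rating (0–100) after 6 further days at 20 °C.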

[6] = test system: Puccinia recondite f. sp. tritici; assay: Test E2: preventive spray on wheat seedlings, visual disease rating (wheat leaf rust)
Procedure, shortened: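 Test suspension (acetone 3% of volume, acetone/water 50/50, 250 ppm Trem 014), 200 ppm unless starred (40 ppm), sprayed to run-off on wheat seedlings; inoculated next day with P. recondita spores. 24 h saturated atmosphere at 20 °C, then 7 days at 20 °C; visual rating, 100 = full control vs untreated.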

[7] = test system: Blumeria graminis f. sp. tritici; assay: Test F: preventive spray on wheat seedlings, visual disease rating (wheat powdery mildew)
Procedure, shortened: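 Compound in acetone/water (50/50) with 250 ppm surfactant, sprayed to run-off on wheat seedlings at 200 ppm (≈800 g/ha) or, where marked, 40 ppm. Seedlings dusted with spores the next day, kept 8 days at 20° C., then rated visually as % disease control versus untreated plants.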

[8] = no asterisk: standard test suspension, not 40 ppm, 100 = 100% disease control, 0 = none
[9] = no asterisk: standard test suspension, not 40 ppm
[10] = asterisk: 40 ppm test suspension

Compound | Test A rating (% disease control) [1, 8] [%] | Test B rating (% disease control) [2, 9] [%] | Test C rating (% disease control) [3, 9] [%] | Test D rating (% disease control) [4, 9] [%] | Test E1 rating (% disease control) [5, 9] [%] | Test E2 rating (% disease control) [6, 9] [%] | Test F rating (% disease control) [7, 9] [%] | Test A rating (% disease control) [1, 10] | Test B rating (% disease control) [2, 10] | Test C rating (% disease control) [3, 10] | Test D rating (% disease control) [4, 10] | Test E1 rating (% disease control) [5, 10] | Test E2 rating (% disease control) [6, 10] | Test F rating (% disease control) [7, 10]
5-(2,6-difluorophenyl)-α-(4-fluoro-2-methylphenyl)-3-methoxy-1-methyl-1H-pyrazole-4-methanol [Compound 157] | 100 | 93 | 0 | 100 | 65 | 89 | 98 |  |  |  |  |  |  | 
Cc1nn(C)c(-c2ccc(F)cc2F)c1Oc1ccc(F)cc1F [compound 13] | 100 | 0 | 0 | 0 | 66 | 0 | 72 |  |  |  |  |  |  | 
Cc1nn(C)c(-c2ccc(F)cc2F)c1Nc1ccc(F)cc1Cl [compound 57] |  |  |  |  |  |  |  | 99* % | 0* % | 0* % | 81* % | 0* % | 18* % | 97* %
Cc1nn(C)c(-c2c(F)cccc2Cl)c1C(O)c1ccc(C#N)cc1F (centres unmarked) [compound 38] | 85 | 99 | 100 | 100 | 0 | 100 | 98 |  |  |  |  |  |  | 
Cc1nn(C)c(-c2ccc(F)cc2Cl)c1C(O)c1ccc(F)cc1Cl (centres unmarked) [compound 18] | 100 | 83 | 0 | 100 | 100 | 100 | 100 |  |  |  |  |  |  | 
Cc1nn(C)c(-c2ccc(C#N)cc2Cl)c1Oc1ccc(F)cc1Cl [compound 36] | 96 | 0 | 0 | 100 | 18 | 100 | 100 |  |  |  |  |  |  | 
Cc1nn(C)c(-c2c(F)cccc2F)c1C(Cl)c1ccc(F)cc1Cl (centres unmarked) [Compound 84] |  |  |  |  |  |  |  | 96* % | 100* % | 99* % | 100* % | 41* % | 100* % | 100* %
Cc1nn(C)c(-c2ccc(F)cc2Cl)c1C(O)c1ccc(F)cc1F (centres unmarked) [compound 17] | 100 | 94 | 60 | 100 | 83 | 100 | 100 |  |  |  |  |  |  | 
